First: O=C(Nc1cnc2ccccc2c1)c1nc(Nc2ccc3[nH]ncc3c2)c2ccccc2n1 [Example 136, 4-(1H-indazol-5-ylamino)-N-(3-quinolinyl)-2-quinazolinecarboxamide]
Second: O=C(Nc1ccccn1)c1nc(Nc2ccc3[nH]ncc3c2)c2ccccc2n1 [Example 135, 4-(1H-indazol-5-ylamino)-N-(2-pyridinyl)-2-quinazolinecarboxamide]
The melting point of the first is lower: 249 to 252 °C for the first, 297 to 300 °C for the second.

First: O=C(NC1CCCC1)c1nc(Nc2ccc3[nH]ncc3c2)c2ccccc2n1 [Example 134, N-cyclopentyl-4-(1H-indazol-5-ylamino)-2-quinazolinecarboxamide]
Second: O=C(NC1CCCCC1)c1nc(Nc2ccc3[nH]ncc3c2)c2ccccc2n1 [Example 133, N-cyclohexyl-4-(1H-indazol-5-ylamino)-2-quinazolinecarboxamide]
The melting point of the first is higher: 237 to 239 °C for the first, 215 to 217 °C for the second.

First: O=C(Nc1ccncc1)c1nc(Nc2ccc3[nH]ncc3c2)c2ccccc2n1 [Example 131, 4-(1H-indazol-5-ylamino)-N-(4-pyridinyl)-2-quinazolinecarboxamide]
Second: COc1ccc(NC(=O)c2nc(Nc3ccc4[nH]ncc4c3)c3ccccc3n2)cc1 [Example 132, 4-(1H-indazol-5-ylamino)-N-(4-methoxyphenyl)-2-quinazolinecarboxamide]
The melting point of the first is higher: 295 to 298 °C for the first, 210 to 213 °C for the second.

`Cc1nc(Nc2ccc3[nH]ncc3c2)c2ccccc2n1` [Example 139, N-(1H-indazol-5-yl)-N-(2-methyl-4-quinazolinyl)amine] and `CNC(=O)c1nc(Nc2ccc3[nH]ncc3c2)c2ccccc2n1` [Example 137, 4-(1H-indazol-5-ylamino)-N-methyl-2-quinazolinecarboxamide] cannot be ordered by melting point: 282 to 288 °C for the first, 283 to 286 °C for the second.
